Test results from patent US8633208B2, “6-1H-imidazo-quinazoline and quinolines derivatives, new MAO inhibitors and imidazoline receptor ligands” (Rottapharm S.p.A, priority 2008, dated 2014).
Counter-ions that a name gives are not always drawn. Like-named read-outs stand apart in the source and are kept apart here.

Experiments:
[1] = target: I2 Imidazoline Receptor; experiment: Binding study towards I2 imidazoline receptor subtype in rat brain ([3H]2-BFI displacement); conditions: read-out: [3H]2-BFI binding IC50; rat whole brain membranes, [3H]-2BFI 2.5x10-9 M, 90 min at 25° C.
Procedure: Binding Study Towards I2 Imidazoline Receptor Subtype in Rat Brain.
Male Wistar rats (240-300 g, Harlan, Italy) were sacrificed by decapitation. Whole brains were immediately removed on ice and homogenised in 10 volumes of buffered sucrose (0.32M in 50 mM Tris-HCl, pH 7.4 at 4° C.) using a motor driven Teflon-glass homogeniser. The homogenate was centrifuged at 1000×g for 10 min at 4° C. The resultant supernatants were pooled and centrifuged at 32000×g for 20 min at 4° C. The supernatants were discarded and each pellet suspended in 10 volumes of assay buffer (50 mM Tris-HCl, 1 mM MgCl2, pH 7.4 at 4° C.) and spun at 32000×g for 20 min at 4° C. The pellets were washed twice by repeated centrifugation at 32000×g for 20 min at 4° C. The final pellets were stored at −80° C. until use. Prior to radioligand binding studies, membrane pellets were thawed and washed a further 4 times by re-suspension in 10 volumes of assay buffer (as above) and repeated centrifugation to remove any possible endogenous inhibitors of binding. […] Non specific binding was determined in the presence of 10^-5 M BU224 (Tocris Bioscience). The incubation, in a final volume of 1 ml, was performed in polystyrene multiwell 24, started adding membranes suspension and was carried out for 90 min at 25° C. With the exception of total binding and non specific binding, all concentration points were performed in duplicate. Compounds were tested in 3-5 different concentrations, ranging from 10^-10 M to 10^-5 M final concentration.

[2] = target: human recombinant MAO-A (Homo sapiens (Human), UniProt P21397); experiment: Monoaminooxidase (MAO) activity assay, MAO-Glo luminescent method, MAO-A
Procedure: Monoaminooxidase (MAO) Activity Assay.
(§1) Inhibitory activity of compounds was evaluated by a homogeneous luminescent method, the MAO-Glo™ Assay (Promega), measuring the monoamine oxidase activity (MAOs) from recombinant source (microsomes from baculovirus infected insect cells, Sigma). Experiments were performed according to the Supplier's procedure, incubating human recombinant MAO-A or MAO-B with a luminogenic substrate, a derivative of beetle luciferin ((4S)-4,5-dihydro-2-(6-hydroxybenzothiazolyl)-4-thiazolecarboxylic acid). […] The MAO-Glo™ Assay was performed in two steps:
(§2) Step 1. The MAO reaction: MAO substrate was incubated with MAO-A or MAO-B (1 μg/sample) in the absence (Total activity) or presence (modulated activity) of test compounds. Total activity was determined in the presence the appropriate solvent. […] Reaction started adding the enzyme solution and samples were incubated for 60 min at room temperature. For negative control reaction, samples of MAO reaction buffer (100 mM Hepes, 5% glycerol, pH 7.5) indeed the test compound were included. For MAO-B activity assay, MAO reaction buffer contain 10% DMSO, in order to increase enzymatic activity. Step 2. […] At the end of incubation 50 μl of Luciferin Detection reagent were added to each well, plate was incubated at room temperature for 20 min, then luminescent signal was detected by luminometer (integration time 0.25-1 sec per well). […] Net MAO-dependent luminescence (net RLU) were calculated by subtracting the average luminescence of the negative control reaction without MAO enzyme. A reduction of net signal in the presence of test compound, with respect to total activity, reflect its effect on MAOs activity. […] A percentage of inhibition for each concentration tested were calculated and the IC50 value was estimated by linear regression.

[3] = target: human recombinant MAO-B (Homo sapiens (Human), UniProt P27338); experiment: Monoaminooxidase (MAO) activity assay, MAO-Glo luminescent method, MAO-B
Procedure: Monoaminooxidase (MAO) Activity Assay.
as §1, §2

[4] = tested on: CD1 Mice; experiment: Tail suspension test in mice; type: in vivo; conditions: for ED50: oral
Procedure: Tail Suspension Test in Mice
To evaluate novel antidepressants compounds several animal models have been developed. […] The antidepressant effect of representative examples of compounds of formula (I) has been evaluated according to the procedure below. The immobility was induced according to the procedure of Stem et al. (1985). CD1 Mice (Harlan, Italy) were individually suspended 75 cm above the top with an adhesive tape placed 1 cm from the tip of the tail. Immobility duration was recorded for 5 min. Mice were considered immobile only when they hung passively and completely motionless. Compounds were given orally, 30 min before the test at doses ranging between 0.3 and 30 mg/kg. Data collected were expressed as mean percent effect (MPE), which represents the % of inhibition in immobility time between the animals treated with representative compounds of formula (I) and the controls that received only the vehicle.

[5] = tested on: CD1 Mice; conditions: commercially available antidepressant drugs, subcutaneous; Millan MJ et al., 2001 JPET, 298(2): 581-591; cited from earlier work
[6] = tested on: rats; experiment: CFA model of inflammatory pain in rats (Randall-Selitto), potentiation of a low dose of morphine; type: in vivo
[7] = read-out: MAO A activity IC50, human recombinant MAO-A, substrate 40 μM, 60 min room temperature
[8] = Table 3, dose 3 mg/Kg OS, 30 min before the test
[9] = Table 3, dose 10 mg/Kg OS, 30 min before the test
[10] = Table 3, dose 30 mg/Kg OS, 30 min before the test
[11] = Table 3, dose yielding 50% reduction of immobility

Sequence of human recombinant MAO-A (P21397 whole entry): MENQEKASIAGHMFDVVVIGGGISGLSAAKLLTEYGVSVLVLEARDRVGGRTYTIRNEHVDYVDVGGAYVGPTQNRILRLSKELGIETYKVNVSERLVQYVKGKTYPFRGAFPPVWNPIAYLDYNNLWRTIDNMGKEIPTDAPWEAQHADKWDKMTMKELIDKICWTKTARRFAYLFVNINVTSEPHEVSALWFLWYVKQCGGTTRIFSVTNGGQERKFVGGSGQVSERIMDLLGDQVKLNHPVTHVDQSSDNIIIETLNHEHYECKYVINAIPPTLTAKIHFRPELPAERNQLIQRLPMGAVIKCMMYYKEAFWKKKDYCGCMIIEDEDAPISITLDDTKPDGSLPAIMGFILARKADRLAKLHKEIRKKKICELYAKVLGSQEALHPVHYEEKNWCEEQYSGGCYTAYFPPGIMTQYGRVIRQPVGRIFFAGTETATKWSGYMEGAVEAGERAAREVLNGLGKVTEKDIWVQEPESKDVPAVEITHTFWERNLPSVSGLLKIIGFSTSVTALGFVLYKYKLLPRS
Sequence of human recombinant MAO-B (P27338 whole entry): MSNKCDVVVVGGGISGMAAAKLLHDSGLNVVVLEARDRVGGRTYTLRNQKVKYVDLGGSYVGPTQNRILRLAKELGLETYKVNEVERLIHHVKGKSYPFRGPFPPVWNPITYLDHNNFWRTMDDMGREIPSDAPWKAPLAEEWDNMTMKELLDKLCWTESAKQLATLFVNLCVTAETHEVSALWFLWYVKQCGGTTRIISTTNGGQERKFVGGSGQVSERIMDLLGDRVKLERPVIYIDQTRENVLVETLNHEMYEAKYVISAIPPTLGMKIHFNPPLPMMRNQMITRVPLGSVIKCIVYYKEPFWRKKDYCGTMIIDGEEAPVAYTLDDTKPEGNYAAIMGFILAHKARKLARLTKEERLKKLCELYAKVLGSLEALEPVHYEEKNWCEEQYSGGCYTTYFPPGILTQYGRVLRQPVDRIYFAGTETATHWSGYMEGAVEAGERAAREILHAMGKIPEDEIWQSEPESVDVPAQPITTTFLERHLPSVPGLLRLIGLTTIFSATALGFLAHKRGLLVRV

## Cc1cn(-c2ccc3nc(-c4ccccc4)ncc3c2)cn1 [Example 4, [6-(4-methyl-1H-imidazol-1-yl)-2-phenyl]quinazoline]
[1]
  IC50: 480 nM
[2]; [7]
  IC50: 2060 nM
[3]
  IC50: > 10 µM
other
  melting point: 201.9 to 202.8 °C

## Fc1ccc(-c2ccc3cc(-n4ccnc4)ccc3n2)cc1 [Example 21, [6-(1H-imidazol-1-yl)-2-(4-fluorophenyl)]quinoline dihydrochloride]
[1]
  IC50: 240 nM
[2]
  IC50: > 10000 nM
[3]
  IC50: > 10 µM
[4]; [8]
  MPE (% inhibition in immobility time): 36%
[4]; [9]
  MPE (% inhibition in immobility time): 72%
[4]; [10]
  MPE (% inhibition in immobility time): 89%
[4]; [11]
  ED50: 4.9 mg/Kg; OS

## CCOc1ccccc1OC(c1ccccc1)C1CNCCO1 (stereo not drawn) [Reboxetine]
[5]
  ED50: 4.2 mg/Kg; SC

## c1cn(-c2ccc3nc(-c4ccc5c(c4)OCO5)ccc3c2)cn1 [Example 16, [6-(1H-imidazol-1-yl)-2-(1,3-benzodioxol-5-yl)]quinoline dihydrochloride]
[1]
  IC50: 190 nM
[2]
  IC50: > 10000 nM
[3]
  IC50: > 10 µM
[4]; [8]
  MPE (% inhibition in immobility time): 41%
[4]; [9]
  MPE (% inhibition in immobility time): 66%
[4]; [10]
  MPE (% inhibition in immobility time): 100%
[4]; [11]
  ED50: 4.6 mg/Kg; OS

## Cc1cncn1-c1ccc2nc(-c3ccccc3)ncc2c1 [Example 5, [6-(5-methyl-1H-imidazol-1-yl)-2-phenyl]quinazoline]
[1]
  IC50: 1180 nM
[2]
  IC50: > 10000 nM
[3]
  IC50: > 10 µM
[4]; [8]
  MPE (% inhibition in immobility time): 41%
[4]; [9]
  MPE (% inhibition in immobility time): 61%
[4]; [10]
  MPE (% inhibition in immobility time): 91%
[4]; [11]
  ED50: 4.9 mg/Kg; OS

## Cc1cc(OC(F)(F)F)ccc1-c1ccc2cc(-n3ccnc3)ccc2n1 [Example 24, [6-(1H-imidazol-1-yl)-2-(2-methyl-4-trifluoromethoxyphenyl)]quinoline dihydrochloride]
[1]
  IC50: 1140 nM
[2]; [7]
  IC50: 280 nM
[3]
  IC50: > 10 µM

## CN1CC[C@]23c4c5ccc(O)c4O[C@H]2[C@@H](O)C=C[C@H]3[C@H]1C5 [Morphine, reference compound]
[6]; 2 h, Example 1 1.5 mg/Kg OS and/or Morphine 0.5 mg/Kg SC
  MPE 2 h (difference in pain threshold): 42.88%
[6]; 3 h, Example 1 1.5 mg/Kg OS and/or Morphine 0.5 mg/Kg SC
  MPE 3 h (difference in pain threshold): 30.49%
[6]; 4 h, Example 1 1.5 mg/Kg OS and/or Morphine 0.5 mg/Kg SC
  MPE 4 h (difference in pain threshold): 15.04%

## Cc1nccn1-c1ccc2nc(-c3ccccc3)ncc2c1 [Example 2, [6-(2-methyl-1H-imidazol-1-yl)-2-phenyl]quinazoline]
[1]
  IC50: 2400 nM
[2]
  IC50: > 10000 nM
[3]
  IC50: > 10 µM
[4]; [8]
  MPE (% inhibition in immobility time): 17%
[4]; [9]
  MPE (% inhibition in immobility time): 77%
[4]; [10]
  MPE (% inhibition in immobility time): 83%
[4]; [11]
  ED50: 7.1 mg/Kg; OS
other
  melting point: 198.3 to 200.3 °C

## CN(C)CCCC1(c2ccc(F)cc2)OCc2cc(C#N)ccc21 (stereo not drawn) [Citalopram]
[5]
  ED50: 8.8 mg/Kg; SC

## CN(C)c1ccc(-c2ccc3cc(-n4ccnc4)ccc3n2)cc1 [Example 22, [6-(1H-imidazol-1-yl)-2-(4-dimethylaminophenyl)]quinoline trihydrochloride]
[1]
  IC50: 3780 nM
[2]; [7]
  IC50: 2090 nM
[3]; read-out: MAO B activity IC50, human recombinant MAO-B, substrate 4 μM, 60 min room temperature
  IC50: 1.49 µM

## COc1ccccc1-c1ncc2cc(-n3cnc(C)c3)ccc2n1 [Example 7, [6-(4-methyl-1H-imidazol-1-yl)-2-(2-methoxyphenyl)]quinazoline]
[1]
  IC50: 2180 nM
[2]
  IC50: > 10000 nM
[3]
  IC50: > 10 µM
other
  melting point: 160.6 to 162 °C

## c1cn(-c2ccc3nc(-c4ccc5c(c4)OCO5)ncc3c2)cn1 [Example 13, [6-(1H-imidazol-1-yl)-2-(1,3-benzodioxol-5-yl)]quinazoline]
[1]
  IC50: 1340 nM
[2]; [7]
  IC50: 10000 nM
[3]
  IC50: > 10 µM

## c1cn(-c2ccc3nc(-c4ccc5c(c4)OCCO5)ncc3c2)cn1 [Example 15, [6-(1H-imidazol-1-yl)-2-(2,3-dihydro-1,4-benzodioxin-6-yl)]quinazoline]
[1]
  IC50: 500 nM
[2]
  IC50: > 10000 nM
[3]
  IC50: > 10 µM

## COc1ccccc1-c1ccc2cc(-n3ccnc3)ccc2n1 [Example 19, [6-(1H-imidazol-1-yl)-2-(2-methoxyphenyl)]quinoline dihydrochloride]
[1]
  IC50: 3160 nM
[2]
  IC50: > 10000 nM
[3]
  IC50: > 10 µM

## COc1ccc(C(CN(C)C)C2(O)CCCCC2)cc1 (stereo not drawn) [Venlafaxine]
[5]
  ED50: 11.7 mg/Kg; SC

## c1ccc(-c2ncc3cc(-n4ccnc4)ccc3n2)cc1 [Example 1, [6-(1H-imidazol-1-yl)-2-phenyl]quinazoline]
[1]
  IC50: 680 nM
[6]; rat, in vivo
  MPE 2 h (difference in pain threshold): 17.19%
  MPE 3 h (difference in pain threshold): 6.61%
  MPE 4 h (difference in pain threshold): 2.46%
[2]; [7]
  IC50: 220 nM
[3]
  IC50: > 10 µM
[4]; 0.3 mg/Kg Idazoxan, antagonist of imidazoline (I2) receptors
  antidepressant-like effect in the presence of Idazoxan: blocked
[4]; Table 3, dose 0.3 mg/Kg OS, 30 min before the test
  MPE (% inhibition in immobility time): 35%
[4]; Table 3, dose 1 mg/Kg OS, 30 min before the test
  MPE (% inhibition in immobility time): 38%
[4]; [8]
  MPE (% inhibition in immobility time): 40%
[4]; [9]
  MPE (% inhibition in immobility time): 66%
[4]; [10]
  MPE (% inhibition in immobility time): 84%
[4]; [11]
  ED50: 4.8 mg/Kg; OS
[4]; Table 4, Example 1 dose 3 mg/Kg OS, alone or with Idazoxan 0.3 mg/Kg IP
  MPE (% inhibition in immobility time): 43%
[4]; Table 4, Example 1 dose 10 mg/Kg OS, alone or with Idazoxan 0.3 mg/Kg IP
  MPE (% inhibition in immobility time): 54%
[4]; Table 4, Example 1 dose 30 mg/Kg OS, alone or with Idazoxan 0.3 mg/Kg IP
  MPE (% inhibition in immobility time): 97%
[4]; Table 4
  ED50: 5.1 mg/Kg; OS

## c1cn(-c2ccc3nc(-c4ccoc4)ccc3c2)cn1 [Example 20, [6-(1H-imidazol-1-yl)-2-(3-furyl)]quinoline dihydrochloride]
[1]
  IC50: 1190 nM
[2]; [7]
  IC50: 250 nM
[3]
  IC50: > 10 µM
